The values below come from US20260243779A1, “METHOD FOR EVALUATING RECEPTOR-TYPE TYROSINE KINASE ACTIVITY” (The University of Osaka, priority 2023, published 2026).

The target of assay [1] is T1, EGFR (Homo sapiens, UniProt P00533). Description: Drug evaluation / FDA-approved drug library screening using MSDδt=500 ms ratio before and after EGF addition, CHO cells expressing EGFR-GFP. To be noted: for MSDδt=500 ms ratio compared with the control: compound addition changed MSDδt=500 ms in an EGF-independent manner; for hit in primary screening (MSDδt=500 ms ratio equal to or greater than threshold = control average + 3×standard deviation): FDA-approved drug library (1134 drugs), EGF 60 nM, among the 53 hit compounds.
Experimental: Single-molecule imaging was performed in the same way as above, except that the gefitinib-untreated CHO cell was used instead of the gefitinib-treated CHO cell as the control, and then the MSDδt=500 ms ratio was calculated.
Single-molecule imaging was also performed for the control in order to determine the threshold. Single-molecule imaging for the control was performed in the same way as above, except that the candidate compound was not placed in the wells.
Compounds that are within a significance level of 5% and increased in a concentration-dependent manner were selected, from which the compounds that are difficult to be measured due to coloration or cause the cell damage were excluded.

For assay [2], the target named is T1, EGFR. Description: EGFR immunostaining, subcellular localization of the EGFR. The note with it: EGF not necessary. The assay is classed as cell-based.
The target of another assay is ErbB3 (Homo sapiens, UniProt P21860). Briefly: Single-molecule imaging of CHO cell expressing ErbB3-GFP, MSD ratio HRG-treated/untreated. The assay is classed as cell-based. The note with it: drug 0.1 to 10,000 nM; HRG saturated (>30 nM); concentration-dependent; FIG. 8A. As to the method: FIGS. 8A and 8B show the relationship between the drug (Sapitinib or Afaitinib) concentration and the receptor diffusion dynamics (MSDδt=500 ms ratio) when the HRG concentration is saturated (>30 nM); here, FIG. 8A is the result for Sapitinib and FIG. 8B is the result for Afaitinib. […] Therefore, it was confirmed that the effect of the phosphorylation inhibitor can be estimated from the change in the molecular dynamics by measuring the diffusion dynamics and calculating the ratio of the MSD values, even for the RTK receptor other than the EGFR.
Sequence of ErbB3 (P21860 20-1342): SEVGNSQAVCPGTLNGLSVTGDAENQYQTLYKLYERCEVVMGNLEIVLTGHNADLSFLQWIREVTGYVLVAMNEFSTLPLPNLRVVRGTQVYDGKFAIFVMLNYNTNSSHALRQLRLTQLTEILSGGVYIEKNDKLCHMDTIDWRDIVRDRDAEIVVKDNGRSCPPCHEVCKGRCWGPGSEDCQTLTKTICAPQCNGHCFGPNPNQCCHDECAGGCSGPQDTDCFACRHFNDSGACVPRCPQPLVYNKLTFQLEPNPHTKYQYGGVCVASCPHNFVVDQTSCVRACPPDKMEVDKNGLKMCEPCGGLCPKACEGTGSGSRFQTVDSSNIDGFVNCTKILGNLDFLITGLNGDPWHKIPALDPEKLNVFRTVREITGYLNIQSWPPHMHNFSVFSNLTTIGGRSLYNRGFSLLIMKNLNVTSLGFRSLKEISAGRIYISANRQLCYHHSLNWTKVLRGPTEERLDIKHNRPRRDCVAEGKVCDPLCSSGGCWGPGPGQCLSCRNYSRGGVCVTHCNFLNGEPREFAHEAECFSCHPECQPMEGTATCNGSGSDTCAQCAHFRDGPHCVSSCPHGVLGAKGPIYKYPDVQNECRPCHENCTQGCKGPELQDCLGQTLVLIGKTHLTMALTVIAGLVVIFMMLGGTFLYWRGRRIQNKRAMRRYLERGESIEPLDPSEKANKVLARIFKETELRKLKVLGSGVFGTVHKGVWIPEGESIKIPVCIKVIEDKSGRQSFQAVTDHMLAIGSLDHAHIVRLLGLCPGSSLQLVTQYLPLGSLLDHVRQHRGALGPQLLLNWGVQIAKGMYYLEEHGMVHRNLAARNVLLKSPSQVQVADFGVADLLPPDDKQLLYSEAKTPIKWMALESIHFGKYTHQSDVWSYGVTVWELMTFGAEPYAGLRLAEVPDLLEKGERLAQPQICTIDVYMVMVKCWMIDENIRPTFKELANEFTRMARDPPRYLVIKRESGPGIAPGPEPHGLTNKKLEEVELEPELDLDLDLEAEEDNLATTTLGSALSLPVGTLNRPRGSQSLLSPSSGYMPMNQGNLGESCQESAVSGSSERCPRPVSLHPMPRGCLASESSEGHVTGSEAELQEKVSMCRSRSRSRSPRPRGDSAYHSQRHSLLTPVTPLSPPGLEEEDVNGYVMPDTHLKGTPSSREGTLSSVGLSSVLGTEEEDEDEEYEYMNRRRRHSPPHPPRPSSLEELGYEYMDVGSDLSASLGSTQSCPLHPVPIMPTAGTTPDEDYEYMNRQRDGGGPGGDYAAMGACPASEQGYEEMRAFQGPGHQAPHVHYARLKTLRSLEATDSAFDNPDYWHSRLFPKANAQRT

T1 sequence (P00533 25-1210): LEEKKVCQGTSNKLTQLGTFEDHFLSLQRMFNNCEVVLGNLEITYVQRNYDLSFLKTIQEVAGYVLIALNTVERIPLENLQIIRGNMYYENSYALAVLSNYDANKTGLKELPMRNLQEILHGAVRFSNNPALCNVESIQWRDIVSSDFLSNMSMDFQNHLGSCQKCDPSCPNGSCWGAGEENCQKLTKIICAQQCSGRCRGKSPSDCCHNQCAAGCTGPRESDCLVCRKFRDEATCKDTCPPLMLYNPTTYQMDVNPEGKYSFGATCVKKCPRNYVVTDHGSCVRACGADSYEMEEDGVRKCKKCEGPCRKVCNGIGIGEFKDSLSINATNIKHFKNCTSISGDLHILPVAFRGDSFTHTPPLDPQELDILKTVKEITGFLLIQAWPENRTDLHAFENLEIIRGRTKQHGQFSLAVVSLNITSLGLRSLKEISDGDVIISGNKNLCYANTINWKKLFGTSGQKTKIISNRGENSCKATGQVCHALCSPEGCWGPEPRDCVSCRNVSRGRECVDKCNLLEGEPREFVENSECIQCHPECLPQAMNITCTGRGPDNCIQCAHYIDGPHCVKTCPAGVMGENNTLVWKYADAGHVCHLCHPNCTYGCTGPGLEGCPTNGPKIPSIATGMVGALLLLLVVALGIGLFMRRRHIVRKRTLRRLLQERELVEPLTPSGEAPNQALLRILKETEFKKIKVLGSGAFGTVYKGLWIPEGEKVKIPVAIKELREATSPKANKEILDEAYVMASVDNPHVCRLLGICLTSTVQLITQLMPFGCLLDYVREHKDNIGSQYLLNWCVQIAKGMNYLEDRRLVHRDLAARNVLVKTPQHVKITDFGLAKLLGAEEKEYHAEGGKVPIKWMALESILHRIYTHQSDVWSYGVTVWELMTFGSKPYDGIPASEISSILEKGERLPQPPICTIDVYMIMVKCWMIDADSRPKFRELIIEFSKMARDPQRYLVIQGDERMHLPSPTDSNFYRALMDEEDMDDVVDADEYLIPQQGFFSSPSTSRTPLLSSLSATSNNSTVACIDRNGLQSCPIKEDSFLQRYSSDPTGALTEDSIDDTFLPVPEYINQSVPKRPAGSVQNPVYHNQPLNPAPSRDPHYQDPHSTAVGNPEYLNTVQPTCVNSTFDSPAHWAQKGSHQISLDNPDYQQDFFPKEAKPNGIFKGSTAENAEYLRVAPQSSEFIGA

With `Oc1c(Br)cc(Br)c2cccnc12` [Broxyquinoline], the “MSDδt=500 ms ratio compared with the control” value on EGFR [1] was “significantly different from the control”. The “effect on the subcellular localization of the EGFR” value at EGFR [2] was “EGFR was incorporated into the cell”.
Consider `COc1cccc2c1C(=O)c1c(O)c3c(c(O)c1C2=O)C[C@@](O)(C(C)=O)C[C@@H]3O[C@H]1C[C@H](N)[C@H](O)[C@H](C)O1` [Daunorubicin], for which the “hit in primary screening (MSDδt=500 ms ratio equal to or greater than threshold = control average + 3×standard deviation)” value on EGFR [1] is recorded as “included”.
Regarding `O=C(OCC(O)CO)c1ccccc1Nc1ccnc2cc(Cl)ccc12` (stereo not drawn) [Glafenine], at EGFR [1], the “MSDδt=500 ms ratio compared with the control” value is “significantly different from the control”. The “effect on the subcellular localization of the EGFR” value at EGFR [2] is reported as “EGFR was incorporated into the cell”.
For `Cc1cn(-c2cc(NC(=O)c3ccc(C)c(Nc4nccc(-c5cccnc5)n4)c3)cc(C(F)(F)F)c2)cn1` [Nilotinib] the same measures were “significantly different from the control” and “EGFR was incorporated into the cell”.
With `C#Cc1cccc(Nc2ncnc3cc(OCCOC)c(OCCO)cc23)c1` [OSI-420], the “hit in primary screening (MSDδt=500 ms ratio equal to or greater than threshold = control average + 3×standard deviation)” value at EGFR [1] is on record as “included”.
Consider `CNC(=O)CN1CCC(Oc2cc3c(Nc4cccc(Cl)c4F)ncnc3cc2OC)CC1` [Sapitinib], for which, on ErbB3, the “effect on reduction of receptor mobility (MSDδt=500 ms ratio) by HRG, ErbB3” value is reported as “inhibited the reduction of the receptor mobility”.
